Test [1] concerns the target Prostaglandin E2 receptor EP4 subtype (Homo sapiens, UniProt P35408). The test can be described thus: hEP4 cAMP Assay.
Description: Cells are counted washed and resuspended in assay buffer (AB; HBSS, 20 mM HEPES, 0.2% BSA; 2 mM IBMX). […] Plate is pre-incubated 45 minutes at RT. Subsequently, 2.5 microliters of PGE2 (final conc. 6 nM) are transferred into the assay plate. Plate is incubated 30 minutes at RT. […] For each compound concentration the percentage of cAMP compared to DMSO control value as average ±STDEV (each concentration is measured in duplicate) is calculated.
Test [2] has as its target Prostaglandin E2 receptor EP2 subtype (Homo sapiens, UniProt P43116). Nature of the test: hEP2 cAMP Assay. How it is done:
Cells are counted washed and resuspended in assay buffer (AB; HBSS, 20 mM HEPES, 0.2% BSA; 2 mM IBMX). […] Plate is pre-incubated 45 minutes at RT. […] Plate is incubated 30 minutes at RT.

Structures are written as SMILES. pIC50: −log10 of the molar value.

We go through 40 compounds from BindingDB's records for patent US11839613 (Idorsia Pharmaceuticals, 2023).

As a reminder, the pIC50 is −log10 of the IC50, conventionally taken in molar units. Low readings indicate a high IC50, high ones a low IC50.

Chain of Prostaglandin E2 receptor EP4 subtype (P35408 whole entry): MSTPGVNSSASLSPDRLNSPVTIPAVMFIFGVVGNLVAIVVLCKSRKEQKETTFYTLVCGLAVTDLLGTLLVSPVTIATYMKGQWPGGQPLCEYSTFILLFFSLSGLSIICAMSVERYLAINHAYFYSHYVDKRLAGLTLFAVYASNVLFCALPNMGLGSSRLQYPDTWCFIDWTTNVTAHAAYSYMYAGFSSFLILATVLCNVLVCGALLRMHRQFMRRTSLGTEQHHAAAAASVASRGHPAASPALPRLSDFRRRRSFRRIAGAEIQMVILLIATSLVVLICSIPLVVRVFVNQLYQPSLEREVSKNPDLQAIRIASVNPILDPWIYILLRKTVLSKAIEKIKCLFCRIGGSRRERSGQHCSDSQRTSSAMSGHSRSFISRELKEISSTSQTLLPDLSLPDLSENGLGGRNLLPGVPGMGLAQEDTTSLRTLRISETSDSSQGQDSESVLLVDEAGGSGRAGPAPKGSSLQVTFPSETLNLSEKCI
Chain of Prostaglandin E2 receptor EP2 subtype (P43116 whole entry): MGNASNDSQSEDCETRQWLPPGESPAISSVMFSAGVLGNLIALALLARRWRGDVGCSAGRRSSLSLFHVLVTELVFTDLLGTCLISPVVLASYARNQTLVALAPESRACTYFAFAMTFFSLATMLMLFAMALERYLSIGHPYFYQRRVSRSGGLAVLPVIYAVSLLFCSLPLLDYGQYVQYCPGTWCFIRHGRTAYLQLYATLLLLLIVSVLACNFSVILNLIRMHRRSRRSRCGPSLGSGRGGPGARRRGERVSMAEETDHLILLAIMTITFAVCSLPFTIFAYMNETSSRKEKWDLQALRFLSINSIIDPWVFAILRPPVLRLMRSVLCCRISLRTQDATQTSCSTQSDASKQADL

With `COc1cc2c(c(C)c1CCNc1cc(-c3ccc(CC(=O)O)c(OC(F)F)c3)ncn1)OCCO2` [US11839613, Example 441], the figures for the pIC50 in test [1] and in test [2] were 7.51 and 7.68, respectively.
In test [2], `COc1cc2c(cc1CCNc1cc(-c3ccc(CC(=O)O)c(CC(C)C)c3)ncn1)OCCO2` [US11839613, Example 411] had a pIC50 of 6.49.
Turning to `CCOc1cc(-c2cc(NCCc3cc(F)c4sccc4c3)ncn2)ccc1C(=O)O` [US11839613, Example 361], the pIC50 was 7.17 in test [1] and 6.57 in test [2].
Take `CCCc1cc(-c2cc(NCCc3cc4c(cc3OC)OCCO4)ncn2)ccc1C(C)C(=O)O` (racemic) [US11839613, Example 401]: the pIC50 in test [1] was 6.63; in test [2] it was 6.13.
On to `COc1cc2ccccc2c(C)c1CCNc1cc(-c2ccc(CC(=O)O)c(OC(F)F)c2)ncn1` [US11839613, Example 443], for which the negative-log IC50 (pIC50) in test [1] was 7.37; in test [2] it was 6.26.
For `CCOc1cc(-c2cc(NCCc3ccc4sccc4c3F)ncn2)ccc1CC(=O)O` [US11839613, Example 368] the same measures were 7.43 and 6.92.
For `CCOc1cc(-c2cc(NCCc3ccc4ccsc4c3C)ncn2)sc1C(=O)O` [US11839613, Example 376] the same measures were 7.96 and 6.73.
For `CCOc1cc(-c2cc(NCCc3cc4ccsc4cc3OC)ncn2)cc(F)c1CC(=O)O` [US11839613, Example 371] the same measures were 7.17 and 7.32.
On to `COc1c(CCNc2cc(-c3ccc(C(=O)O)c(CC(C)C)c3)ncn2)cc2ccsc2c1F` [US11839613, Example 415], for which the pIC50 in test [1] is 7.24; in test [2], 6.97.
Turning to `CCOc1cc(-c2cc(NCCc3cc4ccccc4cc3NC)ncn2)ccc1OCC(=O)O` [US11839613, Example 274], the pIC50 in test [1] is 6.34; in test [2], 5.93.
For `COc1cc(-c2cc(NCCc3c(OC)cc4ccccc4c3C)ncn2)ccc1CC(=O)O` [US11839613, Example 384] the same measures were 7.23 and 6.24.
For `CSc1cc(-c2cc(NCCc3ccc4scc(Cl)c4c3)ncn2)ccc1C(=O)O` [US11839613, Example 429] the same measures were 7.42 and 7.18.
For `CCOc1cc(-c2cc(NCCc3c(OC)cc4ccccc4c3C)ncn2)cc(F)c1CC(=O)O` [US11839613, Example 374], in that order: 7.35 and 6.52.
For `CC(C)Cc1cc(-c2cc(NCCc3ccc4sccc4c3F)ncn2)ccc1C(=O)O` [US11839613, Example 413], the figures for the pIC50 in test [1] and in test [2] were 7.42 and 6.92, respectively.
For `CCOc1cc(-c2cc(NCCc3cc(F)c4sccc4c3)ncn2)ccc1CC(=O)O` [US11839613, Example 363], in that order: 7.46 and 6.27.
For `CCOc1cc(-c2cc(NCCc3cc(F)c4sccc4c3)ncn2)ccc1OCCC(=O)O` [US11839613, Example 422], in that order: 7.74 and 6.31.
Turning to `C#Cc1cc2c(cc1CCNc1cc(-c3ccc(CC(=O)O)c(CCC)c3)ncn1)OCCO2` [US11839613, Example 440], the pIC50 in test [1] was 7.19; in test [2] it was 7.60.
As to `CCOc1cc(-c2cc(NCCc3ccc4sccc4c3F)ncn2)ccc1C(=O)O` [US11839613, Example 365], the pIC50 in test [1] is 7.26; in test [2], 7.54.
Take `COc1cc(-c2cc(NCCc3ccc4sccc4c3F)ncn2)ccc1CC(=O)O` [US11839613, Example 382]: the values for the pIC50 in test [1] and in test [2] were 6.65 and 6.17, respectively.
As to `CCOc1cc(-c2cc(NCCc3cc(F)c4sccc4c3)ncn2)sc1C(=O)O` [US11839613, Example 362], the pIC50 in test [1] was 9.00.
Regarding `COc1cc(-c2cc(NCCc3ccc4sccc4c3F)ncn2)ccc1OCCC(=O)O` [US11839613, Example 437], the negative logarithm of the IC50 (pIC50) in test [1] is 7.43; in test [2], 6.64.
Consider `COc1cc2c(c(C)c1CCNc1cc(-c3ccc(CC(=O)O)c(OC(C)C)c3)ncn1)OCCO2` [US11839613, Example 426], for which the pIC50 in test [2] was 7.66.
For `CCc1cc(-c2cc(NCCc3c(OC)cc4ccccc4c3C)ncn2)ccc1CC(=O)O` [US11839613, Example 445], the pIC50 in test [1] was 6.98; in test [2] it was 6.28.
For `CCOc1cc(-c2cc(NCCc3cc4ccsc4c(F)c3OC)ncn2)ccc1C(=O)O` [US11839613, Example 404], the negative-log IC50 (pIC50) in test [1] is 7.15; in test [2] it was 7.57.
In the case of `CCCc1cc(-c2cc(NCCc3cc4ccsc4cc3OC)ncn2)ccc1C(=O)O` [US11839613, Example 377], the pIC50 was 7.04 in test [1] and 7.57 in test [2].
For `O=C(O)c1ccc(-c2cc(NCCc3ccc4sccc4c3F)ncn2)cc1OC1CCC1` [US11839613, Example 366], in that order: 7.33 and 7.52.
Turning to `CCOc1cc(-c2cc(NCCc3c(OC)cc4c(c3C)OCCO4)ncn2)ccc1CC(=O)O` [US11839613, Example 399], the pIC50 is 7.32 in test [1] and 7.40 in test [2].
The compound `CCOc1cc2c(cc1CCNc1cc(-c3ccc(CC(=O)O)c(OC(F)(F)F)c3)ncn1)OCCO2` [US11839613, Example 427] showed a pIC50 in test [1] of 6.72.
For the compound `COc1cc2c(c(C)c1CCNc1cc(-c3ccc(C(=O)O)c(OC4CCC4)c3)ncn1)OCCO2` [US11839613, Example 396], the values for the pIC50 in test [1] and in test [2] were 7.70 and 9.00, respectively.
`COc1cc(-c2cc(NCCc3c(OC)cc4c(c3C)OCCO4)ncn2)ccc1CC(=O)O` [US11839613, Example 434] gave a negative logarithm of the IC50 (pIC50) in test [1] of 7.02.
Regarding `CCOc1cc2c(cc1CCNc1cc(-c3ccc(C(=O)O)c(OC4CC4)c3)ncn1)OCCO2` [US11839613, Example 447], the pIC50 in test [2] was 7.80.
The compound `COc1cc2c(c(C)c1CCNc1cc(-c3ccc(C(=O)O)c(SC)c3)ncn1)OCCO2` [US11839613, Example 400] showed a negative-log IC50 (pIC50) in test [1] of 7.43.
As to `COc1cc2c(c(F)c1CCNc1cc(-c3ccc(CC(=O)O)c(OC(F)F)c3)ncn1)OCCO2` [US11839613, Example 442], in test [2], the pIC50 is 6.65.
Same read-out and setting: the figure for `CCOc1cc(-c2cc(NCCc3ccc4sccc4c3C)ncn2)cc(F)c1CC(=O)O` [US11839613, Example 372] is 6.95.
The compound `CCCc1cc(-c2cc(NCCc3c(OC)cc4c(c3C)OCCO4)ncn2)ccc1CC(=O)O` [US11839613, Example 397] showed a pIC50 in test [2] of 7.60.
With `CCCc1cc(-c2cc(NCCc3ccc4sccc4c3F)ncn2)ccc1C(C)C(=O)O` (racemic) [US11839613, Example 482], the pIC50 in test [1] is 6.49.
For the compound `CCOc1cc(-c2cc(NCCc3cc4c(cc3OC)OCCO4)ncn2)cc(F)c1CC(=O)O` [US11839613, Example 373], in test [2], the pIC50 is 6.54.
On to `COc1cc(-c2cc(NCCc3cc(F)c4sccc4c3)ncn2)ccc1CC(=O)O` [US11839613, Example 475], for which the pIC50 in test [1] is 6.94.
`COc1cc2c(c(C)c1CCNc1cc(-c3ccc(CC(=O)O)c(OC(F)(F)F)c3)ncn1)OCCO2` [US11839613, Example 428] showed a pIC50 in test [1] of 7.30.
Take `CCCc1cc(-c2cc(NCCc3cc4c(cc3OC)OCCO4)ncn2)ccc1CC(=O)O` [US11839613, Example 387]: the pIC50 in test [2] was 6.69.
